# Laboratory results reported in patent publication US20250163104A1, “MACROCYCLIC IMMUNOMODULATORS” (priority 2021, published 2025).
# Where a SMILES comes first, the peptide text is derived from it. Bridges are numbered along the chain shown (N, C = ends). [ ]: non-standard residue; d: D form. The star is where a group is joined. ξ: configuration not given here. Bip(3'-COOH) = N[C@@H](Cc1ccc(-c2cccc(C(=O)O)c2)cc1)C(=O)O; Phe(4-COOH) = N[C@@H](Cc1ccc(C(=O)O)cc1)C(=O)O; Asp(3,3-Me2) = CC(C)(C(=O)O)[C@H](N)C(=O)O; Bip = N[C@@H](Cc1ccc(-c2ccccc2)cc1)C(=O)O; Phe(3-Me) = Cc1cccc(C[C@H](N)C(=O)O)c1; Val(3-OH) = CC(C)(O)[C@H](N)C(=O)O; 4Pal = N[C@@H](Cc1ccncc1)C(=O)O; Cha = N[C@@H](CC1CCCCC1)C(=O)O; Cit = NC(=O)NCCC[C@H](N)C(=O)O; Thr(3ξ) = CC(O)[C@H](N)C(=O)O; Ahp(2) = CCCCC[C@H](N)C(=O)O; Phg = N[C@H](C(=O)O)c1ccccc1; dNle = CCCC[C@@H](N)C(=O)O; Carboxymethyl = O=C(O)C*; Nle = CCCC[C@H](N)C(=O)O; Orn = NCCC[C@H](N)C(=O)O; Dab = NCC[C@H](N)C(=O)O; Abu = CC[C@H](N)C(=O)O; Dap = NC[C@H](N)C(=O)O; ξPra = C#CCC(N)C(=O)O
# Target: T1, human PD-1 / PD-L1-Ig binding on Jurkat cell line over-expressing human PD-1 (Jurkat-PD-1) (Homo sapiens, UniProt Q15116)
# T1 construct: expressed in transfected cells; host or cells: Jurkat
# T1 sequence (Q15116 25-288): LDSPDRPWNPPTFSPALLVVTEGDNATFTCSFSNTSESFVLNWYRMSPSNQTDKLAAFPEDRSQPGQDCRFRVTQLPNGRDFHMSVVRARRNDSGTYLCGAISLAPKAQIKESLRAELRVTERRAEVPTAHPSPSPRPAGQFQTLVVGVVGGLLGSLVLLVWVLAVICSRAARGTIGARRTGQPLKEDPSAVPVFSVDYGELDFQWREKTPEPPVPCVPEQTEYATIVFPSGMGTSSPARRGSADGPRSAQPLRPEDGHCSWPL
# Assay: Jurkat-PD-1 Cell Binding High-Content Screening Assay (CBA)
# Assay type: cell-based
# Conditions: Jurkat-PD-1 cells, PE-labeled PD-L1-Ig 20 nM final; read-out: Jurkat HPD1_PDL1 IC50
# How it was run: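 PE-PD-L1-Ig 20 nM final; cells in DMEM/10% FCS; cpd pre-incubation 2 h, 37° C; ligand 1 h; PFA fix + Hoechst 33342; high-content imaging read-out.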
row,SMILES,IC50 [nM]
1,CC(C)C[C@@H]1NC(=O)[C@H](CCCCN)NC(=O)[C@@H](CC(C)C)NC(=O)[C@H](CCCN)NC(=O)[C@H](CCCNC(=N)N)NC(=O)[C@H](Cc2ccc(-c3ccccc3)cc2)NC(=O)[C@H](C(C)C)NC(=O)[C@H](Cc2c[nH]c3ccccc23)NC(=O)[C@H](CC(=O)O)NC(=O)[C@H](Cc2ccc(O)cc2)NC(=O)[C@H](CC(N)=O)NC(=O)CSC[C@@H](C(=O)N[C@@H](C)C(N)=O)NC(=O)[C@H]([C@@H](C)O)NC(=O)[C@H](C(C)C)NC1=O [Compound 1030] ({CH2CO}-NYDWV[Bip]R[Orn][dL]KLVTCA-NH2; thioether N-14),10.8
2,CC(C)C[C@@H]1NC(=O)[C@H](CCN)NC(=O)[C@@H](CC(C)C)NC(=O)[C@H](CCN)NC(=O)[C@H](C(C)C)NC(=O)[C@H](Cc2ccc(-c3ccccc3)cc2)NC(=O)[C@H](C(C)C)NC(=O)[C@H](Cc2c[nH]c3ccccc23)NC(=O)[C@H](CC(N)=O)NC(=O)[C@H](Cc2ccc(O)cc2)NC(=O)[C@H](CC(N)=O)NC(=O)CSC[C@@H](C(=O)NCC(N)=O)NC(=O)[C@H]([C@@H](C)O)NC(=O)[C@H](C(C)C)NC1=O [Compound 1086] ({CH2CO}-NYNWV[Bip]V[Dab][dL][Dab]LVTCG-NH2; thioether N-14),20.5
3,CC[C@@H]1NC(=O)[C@H](Cc2c[nH]c3ccccc23)NC(=O)[C@H](CC(=O)O)NC(=O)[C@H](Cc2ccc(OCC(=O)O)cc2)NC(=O)[C@H](CN)NC(=O)CSC[C@@H](C(=O)N[C@@H](C)C(N)=O)NC(=O)[C@H]([C@@H](C)O)NC(=O)[C@H](C(C)C)NC(=O)[C@H](CC2CCCCC2)NC(=O)[C@H](CCN)NC(=O)[C@@H](CC(C)C)NC(=O)[C@H](CCCN)NC(=O)[C@H](CCCNC(N)=O)NC(=O)[C@H](Cc2ccc(-c3ccccc3)cc2)NC1=O [Compound 1356] ({CH2CO}-[Dap]Y(Carboxymethyl)DW[Abu][Bip][Cit][Orn][dL][Dab][Cha]VTCA-NH2; thioether N-14),5.5
4,CC(C)C[C@@H]1NC(=O)[C@H](CCN)NC(=O)[C@@H](CC(C)C)NC(=O)[C@H](CCCN)NC(=O)[C@H](C(C)C)NC(=O)[C@H](Cc2ccc(-c3ccccc3)cc2)NC(=O)[C@H](C(C)C)NC(=O)[C@H](Cc2c[nH]c3ccccc23)NC(=O)[C@H](CC(=O)O)NC(=O)[C@H](Cc2ccc(C(=O)O)cc2)NC(=O)[C@H](Cc2ccc(OCC(=O)O)cc2)NC(=O)CSC[C@@H](C(=O)N[C@@H](C)C(N)=O)NC(=O)[C@H]([C@@H](C)O)NC(=O)[C@H](C(C)C)NC1=O [Compound 1248] ({CH2CO}-Y(Carboxymethyl)[Phe(4-COOH)]DWV[Bip]V[Orn][dL][Dab]LVTCA-NH2; thioether N-14),12.4
5,CC(C)C[C@H]1NC(=O)[C@H](CCCN)NC(=O)CNC(=O)[C@H](Cc2ccc(-c3ccccc3)cc2)NC(=O)[C@H](C(C)C)NC(=O)[C@H](Cc2c[nH]c3ccccc23)NC(=O)[C@H](CC(=O)O)NC(=O)[C@H](Cc2ccc(OCC(=O)O)cc2)NC(=O)[C@H](C(C)O)NC(=O)CSC[C@@H](C(=O)N[C@@H](CC(N)=O)C(N)=O)NC(=O)[C@H](CO)NC(=O)[C@H](C(C)C)NC(=O)[C@H](CC2CCCCC2)NC(=O)[C@H](CCN)NC1=O (stereo partly drawn) [Compound 2566] ({CH2CO}-[Thr(3ξ)]Y(Carboxymethyl)DWV[Bip]G[Orn][dL][Dab][Cha]VSCN-NH2; thioether N-14),121
6,CCCC[C@H]1NC(=O)[C@H](CCCN)NC(=O)[C@H]([C@@H](C)CC)NC(=O)[C@H](Cc2ccc(-c3ccccc3)cc2)NC(=O)[C@H](C(C)C)NC(=O)[C@H](Cc2c[nH]c3ccccc23)NC(=O)[C@H](CC(=O)O)NC(=O)[C@H](Cc2ccc(O)cc2)NC(=O)[C@H](CC(N)=O)NC(=O)CSC[C@@H](C(=O)N[C@@H](C)C(N)=O)NC(=O)[C@H]([C@@H](C)O)NC(=O)[C@H](C(C)C)NC(=O)[C@H](CC2CCCCC2)NC(=O)[C@H](CCN)NC1=O [Compound 1712] ({CH2CO}-NYDWV[Bip]I[Orn][dNle][Dab][Cha]VTCA-NH2; thioether N-14),25.1
7,C#CCC(NC(=O)[C@H](CN)NC(=O)[C@@H]1CSCC(=O)N[C@@H](Cc2ccncc2)C(=O)N[C@@H](Cc2ccc(OCC(=O)O)cc2)C(=O)N[C@@H](CC(=O)O)C(=O)N[C@@H](Cc2c[nH]c3ccccc23)C(=O)N[C@@H](C(C)C)C(=O)N[C@@H](Cc2ccc(-c3ccccc3)cc2)C(=O)N[C@@H]([C@@H](C)CC)C(=O)N[C@@H](CCCN)C(=O)N[C@H](CC(C)C)C(=O)N[C@@H](CCN)C(=O)N[C@@H](CC(C)C)C(=O)N[C@@H](C(C)C)C(=O)N[C@@H]([C@@H](C)O)C(=O)N1)C(N)=O (stereo partly drawn) [Compound 1764] ({CH2CO}-[4Pal]Y(Carboxymethyl)DWV[Bip]I[Orn][dL][Dab]LVTC[Dap][ξPra]-NH2; thioether N-14),33.1
8,Cc1cccc(C[C@@H]2NC(=O)[C@H](CC(=O)O)NC(=O)[C@H](Cc3ccc(C(=O)O)cc3)NC(=O)[C@H](Cc3ccncc3)NC(=O)CSC[C@@H](C(=O)N[C@@H](C)C(N)=O)NC(=O)[C@H]([C@@H](C)O)NC(=O)[C@H](C(C)C)NC(=O)[C@H](CC3CCCCC3)NC(=O)[C@H](CCN)NC(=O)[C@@H](CC(C)C)NC(=O)[C@H](CCCN)NC(=O)[C@H](CCCNC(N)=O)NC(=O)[C@H](Cc3ccc(-c4ccccc4)cc3)NC(=O)[C@H](C(C)C)NC2=O)c1 [Compound 1190],4.5
9,CCCCC[C@@H]1NC(=O)[C@H](Cc2ccc(-c3ccccc3)cc2)NC(=O)[C@H](C(C)C)NC(=O)[C@H](Cc2c[nH]c3ccccc23)NC(=O)[C@H](CC(=O)O)NC(=O)[C@H](Cc2ccc(C(=O)O)cc2)NC(=O)[C@H](Cc2ccncc2)NC(=O)CSC[C@@H](C(=O)N[C@@H](CC(N)=O)C(N)=O)NC(=O)[C@H](CO)NC(=O)[C@H](C(C)C)NC(=O)[C@H](CC2CCCCC2)NC(=O)[C@H](CCN)NC(=O)[C@@H](C)NC(=O)[C@H](CCCN)NC1=O [Compound 2541] ({CH2CO}-[4Pal][Phe(4-COOH)]DWV[Bip][Ahp(2)][Orn][dA][Dab][Cha]VSCN-NH2; thioether N-14),58.4
10,CCCC[C@H]1NC(=O)[C@H](CCCN)NC(=O)[C@H](CCC(=O)O)NC(=O)[C@H](Cc2ccc(-c3ccccc3)cc2)NC(=O)[C@H](C(C)C)NC(=O)[C@H](Cc2c[nH]c3ccccc23)NC(=O)[C@H](CC(=O)O)NC(=O)[C@H](Cc2ccc(OCC(=O)O)cc2)NC(=O)[C@H](CN)NC(=O)CSC[C@@H](C(=O)N[C@@H](C)C(N)=O)NC(=O)[C@H]([C@@H](C)O)NC(=O)[C@H](C(C)C)NC(=O)[C@H](CC2CCCCC2)NC(=O)[C@H](CCN)NC1=O [Compound 1454],11.9

# Now from value to compound:
row,IC50 [nM],SMILES
1,23.7,CCCC[C@@H]1NC(=O)[C@H](CC(N)=O)NC(=O)[C@@H](CC(C)C)NC(=O)[C@H](CN)NC(=O)[C@H](C(C)C)NC(=O)[C@H](Cc2ccc(-c3ccccc3)cc2)NC(=O)[C@H](CC(C)C)NC(=O)[C@H](Cc2c[nH]c3ccccc23)NC(=O)[C@H](CC(=O)O)NC(=O)[C@H](Cc2ccc(C(=O)O)cc2)NC(=O)[C@H](Cc2ccc(OCC(=O)O)cc2)NC(=O)CSC[C@@H](C(=O)NCC(N)=O)NC(=O)[C@H](CO)NC(=O)[C@H](C(C)C)NC1=O [Compound 1398] ({CH2CO}-Y(Carboxymethyl)[Phe(4-COOH)]DWL[Bip]V[Dap][dL]N[Nle]VSCG-NH2; thioether N-14)
2,29.2,CC[C@H](C)[C@@H]1NC(=O)[C@H](Cc2ccc(-c3ccccc3)cc2)NC(=O)[C@H](c2ccccc2)NC(=O)[C@H](Cc2c[nH]c3ccccc23)NC(=O)[C@H](CC(=O)O)NC(=O)[C@H](Cc2ccc(OCC(=O)O)cc2)NC(=O)[C@H](CN)NC(=O)CSC[C@@H](C(=O)N[C@@H](C)C(N)=O)NC(=O)[C@H]([C@@H](C)O)NC(=O)[C@H](C(C)C)NC(=O)[C@H](CC2CCCCC2)NC(=O)[C@H](CCN)NC(=O)[C@@H](CC(C)C)NC(=O)[C@H](CCCN)NC1=O [Compound 1728] ({CH2CO}-[Dap]Y(Carboxymethyl)DW[Phg][Bip]I[Orn][dL][Dab][Cha]VTCA-NH2; thioether N-14)
3,13.9,CC(C)C[C@@H]1NC(=O)[C@H](Cc2c[nH]c3ccccc23)NC(=O)[C@H](CC(=O)O)NC(=O)[C@H](Cc2ccc(O)cc2)NC(=O)[C@H](Cc2ccccc2)NC(=O)CSC[C@@H](C(=O)N[C@@H](C)C(N)=O)NC(=O)[C@H](CO)NC(=O)[C@H](C(C)C)NC(=O)[C@H](CC(C)C)NC(=O)[C@H](CCN)NC(=O)[C@@H](CC(C)C)NC(=O)[C@H](CCCN)NC(=O)[C@H](C(C)C)NC(=O)[C@H](Cc2ccc(-c3ccccc3)cc2)NC1=O [Compound 1069] ({CH2CO}-FYDWL[Bip]V[Orn][dL][Dab]LVSCA-NH2; thioether N-14)
4,22.2,"Cc1cccc(C[C@@H]2NC(=O)[C@H](CC(=O)O)NC(=O)[C@H](Cc3ccc(OCC(=O)O)cc3)NC(=O)[C@H](CCN)NC(=O)CSC[C@@H](C(=O)N[C@@H](CCN)C(N)=O)NC(=O)[C@H](CO)NC(=O)[C@H](C(C)(C)O)NC(=O)[C@H](CC3CCCCC3)NC(=O)[C@H](CCN)NC(=O)[C@@H](CC(C)C)NC(=O)[C@H](C(C)(C)C(=O)O)NC(=O)[C@H](Cc3ccc(OCC(=O)O)cc3)NC(=O)[C@H](Cc3ccc(-c4ccccc4)cc3)NC(=O)[C@H](Cc3ccc(OCC(=O)O)cc3)NC2=O)c1 [Compound 2073] ({CH2CO}-[Dab]Y(Carboxymethyl)D[Phe(3-Me)]Y(Carboxymethyl)[Bip]Y(Carboxymethyl)[Asp(3,3-Me2)][dL][Dab][Cha][Val(3-OH)]SC[Dab]-NH2; thioether N-14)"
5,27,CC(C)C[C@H]1NC(=O)[C@H](CCCN)NC(=O)[C@H](CCC(=O)O)NC(=O)[C@H](Cc2ccc(-c3ccccc3)cc2)NC(=O)[C@H](C(C)C)NC(=O)[C@H](Cc2c[nH]c3ccccc23)NC(=O)[C@H](CC(=O)O)NC(=O)[C@H](Cc2ccc(-c3cccc(C(=O)O)c3)cc2)NC(=O)[C@H](Cc2ccccc2)NC(=O)CSC[C@@H](C(=O)N[C@@H](C)C(N)=O)NC(=O)[C@H]([C@@H](C)O)NC(=O)[C@H](C(C)C)NC(=O)[C@H](CC2CCCCC2)NC(=O)[C@H](CCN)NC1=O [Compound 2161] ({CH2CO}-F[Bip(3'-COOH)]DWV[Bip]E[Orn][dL][Dab][Cha]VTCA-NH2; thioether N-14)
